# Assay results taken from patent US12162890B2 (Novartis AG, priority 2015, dated 2024).
# Target: HEK293 cells with stable expression of the GRIN1 gene and tetracycline-inducible expression of the GRIN2B gene (NMDA receptor, NR2B) (Homo sapiens, UniProt Q13224)
# Assay: Fluo-8 Ca2+ flux assay: reversal of Ro 25-6981-mediated suppression of the Ca2+ response to co-agonist (glutamate/glycine); note: test concentration or dose not given here
# Type: cell-based
# Conditions: reversal of the Ro 25-6981 suppression of the Ca2+ response to co-agonist (glutamate/glycine)
# Chain of HEK293 cells with stable expression of the GRIN1 gene and tetracycline-inducible expression of the GRIN2B gene (NMDA receptor, NR2B) (Q13224 27-1484, other chains not shown): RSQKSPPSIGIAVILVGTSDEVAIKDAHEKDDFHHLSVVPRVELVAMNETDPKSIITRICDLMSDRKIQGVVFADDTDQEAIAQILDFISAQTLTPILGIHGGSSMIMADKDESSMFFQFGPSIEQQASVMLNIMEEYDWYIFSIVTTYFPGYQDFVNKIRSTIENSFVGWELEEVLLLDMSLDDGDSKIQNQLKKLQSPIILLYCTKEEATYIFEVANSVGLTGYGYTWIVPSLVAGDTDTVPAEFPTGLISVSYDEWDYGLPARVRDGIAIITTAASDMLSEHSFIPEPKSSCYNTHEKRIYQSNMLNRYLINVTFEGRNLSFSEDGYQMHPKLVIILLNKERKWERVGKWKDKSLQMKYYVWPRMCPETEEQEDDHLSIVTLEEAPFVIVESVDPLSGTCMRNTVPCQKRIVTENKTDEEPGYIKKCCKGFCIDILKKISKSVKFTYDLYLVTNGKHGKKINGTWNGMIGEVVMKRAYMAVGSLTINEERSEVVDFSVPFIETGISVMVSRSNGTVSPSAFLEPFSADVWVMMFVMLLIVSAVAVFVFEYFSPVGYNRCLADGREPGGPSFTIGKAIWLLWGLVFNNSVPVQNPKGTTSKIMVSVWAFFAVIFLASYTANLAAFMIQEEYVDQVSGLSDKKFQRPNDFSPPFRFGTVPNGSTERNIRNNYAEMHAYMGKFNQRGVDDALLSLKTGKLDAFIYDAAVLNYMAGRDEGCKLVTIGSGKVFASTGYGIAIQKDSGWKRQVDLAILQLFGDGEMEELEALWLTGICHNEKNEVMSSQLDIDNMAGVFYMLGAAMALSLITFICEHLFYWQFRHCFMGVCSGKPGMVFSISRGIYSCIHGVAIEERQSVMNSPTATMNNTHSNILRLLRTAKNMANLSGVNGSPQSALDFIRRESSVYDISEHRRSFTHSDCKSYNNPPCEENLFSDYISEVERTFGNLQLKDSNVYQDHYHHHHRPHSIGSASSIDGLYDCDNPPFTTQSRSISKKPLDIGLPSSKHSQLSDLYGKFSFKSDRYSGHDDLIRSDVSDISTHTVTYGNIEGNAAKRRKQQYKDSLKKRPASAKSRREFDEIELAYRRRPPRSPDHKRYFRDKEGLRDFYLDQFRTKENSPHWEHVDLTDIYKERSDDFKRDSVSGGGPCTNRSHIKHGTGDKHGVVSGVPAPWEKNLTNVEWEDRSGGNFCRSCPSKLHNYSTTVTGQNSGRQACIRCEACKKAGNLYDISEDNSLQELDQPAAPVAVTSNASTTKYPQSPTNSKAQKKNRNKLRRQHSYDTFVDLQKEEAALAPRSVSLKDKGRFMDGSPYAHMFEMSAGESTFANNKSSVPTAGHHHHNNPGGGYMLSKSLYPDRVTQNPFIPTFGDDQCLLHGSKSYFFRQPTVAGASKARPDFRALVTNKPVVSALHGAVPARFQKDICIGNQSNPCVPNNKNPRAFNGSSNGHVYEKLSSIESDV
row,Response Recovered (%),Compound
1,9%,"O=C(Cn1cnc2[nH]nc(-c3ccc(Cl)c(C(F)(F)F)c3)c2c1=O)N1CC(F)(F)C1 [Example 320, 3-(4-Chloro-3-trifluoromethyl-phenyl)-5-[2-(3,3-difluoro-azetidin-1-yl)-2-oxo-ethyl]-1,5-dihydro-pyrazolo[3,4-d]pyrimidin-4-one]"
2,69%,O=C(Cn1cnc2[nH]cc(-c3ccc(Cl)c(C(F)(F)F)c3)c2c1=O)N1C[C@@H](F)[C@@H](F)C1 [Example 181]
3,69%,"Cc1cn(CC(=O)N2CC(C)(F)C2)c(=O)c2c(-c3cnc(Cl)c(Cl)c3)ccn12 [Example 420, 8-(5,6-dichloropyridin-3-yl)-2-(2-(3-fluoro-3-methylazetidin-1-yl)-2-oxoethyl)-4-methylpyrrolo[1,2-a]pyrazin-1(2H)-one]"
4,1%,"O=C(Cn1cnc2csc(-c3ccc(Cl)cc3)c2c1=O)N1CCC(F)(F)CC1 [Example 353, 5-(4-chlorophenyl)-3-(2-(4,4-difluoropiperidin-1-yl)-2-oxoethyl)thieno[3,4-d]pyrimidin-4(3H)one]"
5,37%,"O=C(Cn1ccc2cccc(-c3ccc(Cl)c(C(F)(F)F)c3)c2c1=O)N1CCCC1 [Example 300, 8-(4-chloro-3-(trifluoromethyl)phenyl)-2-(2-oxo-2-(pyrrolidin-1-yl)ethyl)isoquinolin-1(2H)-one]"
6,109%,"O=C(Cn1ccc2[nH]cc(-c3ccc(Cl)c(F)c3)c2c1=O)N1CC(F)(F)C1 [Example 213, 3-(4-chloro-3-fluorophenyl)-5-(2-(3,3-difluoroazetidin-1-yl)-2-oxoethyl)-1H-pyrrolo[3,2-c]pyridin-4(5H)-one]"
7,47%,"N=C(N)c1cn(CC(=O)N2CCCC2)c(=O)c2c(-c3ccc(F)c(C(F)(F)F)c3)csc12 [Example 113, 3-(4-fluoro-3-(trifluoromethyl)phenyl)-4-oxo-5-(2-oxo-2-(pyrrolidin-1-yl)ethyl)-4,5-dihydrothieno[3,2-c]pyridine-7-carboximidamide]"
8,6%,"O=C(Cn1ccc2ccc(-c3ccc(Cl)c(C(F)(F)F)c3)cc2c1=O)N1CCC(F)C1 (stereo not drawn) [Example 311, 7-(4-chloro-3-(trifluoromethyl)phenyl)-2-(2-(3-fluoropyrrolidin-1-yl)-2-oxoethyl)isoquinolin-1(2H)-one]"
9,110%,"Cc1cn(CC(=O)N2CC(C)(F)C2)c(=O)c2c(-c3ccc(Cl)c(Cl)c3)ccn12 [Example 419, 8-(3,4-dichlorophenyl)-2-(2-(3-fluoro-3-methylazetidin-1-yl)-2-oxoethyl)-4-methylpyrrolo[1,2-a]pyrazin-1(2H)-one]"
10,15%,"CCn1cc(-c2ccc(Cl)c(F)c2)c2c(=O)n(CC(=O)N3CC(F)(F)C3)cnc21 [Example 171, 5-(4-chloro-3-fluorophenyl)-3-(2-(3,3-difluoroazetidin-1-yl)-2-oxoethyl)-7-ethyl-3H-pyrrolo[2,3-d]pyrimidin-4(7H)-one]"
11,37%,"O=C(Cn1cnc2[nH]cc(-c3ccc(Cl)c(F)c3)c2c1=O)N1CCC(F)C1 (stereo not drawn) [Example 179, 5-(4-Chloro-3-fluoro-phenyl)-3-[2-(3-fluoro-pyrrolidin-1-yl)-2-oxo-ethyl]-3,7-dihydro-pyrrolo[2,3-d]pyrimidin-4-one]"
12,93%,"O=C(Cn1ccc2c(c(-c3ccc(Cl)c(Cl)c3)cn2CCF)c1=O)N1CCC(F)C1 (stereo not drawn) [Example 273, 3-(3,4-dichlorophenyl)-1-(2-fluoroethyl)-5-[2-(3-fluoropyrrolidin-1-yl)-2-oxoethyl]-1H,4H,5H-pyrrolo[3,2-c]pyridin-4-one]"
13,82%,"Cn1cc(-n2cc(-c3ccc(Cl)c(Cl)c3)c3c(=O)n(CC(=O)N4CCC(F)C4)ccc32)cn1 (stereo not drawn) [Example 283, 3-(3,4-dichlorophenyl)-5-(2-(3-fluoropyrrolidin-1-yl)-2-oxoethyl)-1-(1-methyl-1H-pyrazol-4-yl)-1H-pyrrolo[3,2-c]pyridin-4(5H)-one]"
14,17%,"Cc1cc(-c2csc3ccn(CC(=O)N4CC(F)(CF)C4)c(=O)c23)cnc1Cl [Example 86, 3-(6-chloro-5-methylpyridin-3-yl)-5-(2-(3-fluoro-3-(fluoromethyl)azetidin-1-yl)-2-oxoethyl)thieno[3,2-c]pyridin-4(5H)-one]"
15,16%,"CCC1(F)CN(C(=O)Cn2ccc3scc(-c4cnc(Cl)c(C)c4)c3c2=O)C1 [Example 85, 3-(6-chloro-5-methylpyridin-3-yl)-5-(2-(3-ethyl-3-fluoroazetidin-1-yl)-2-oxoethyl)thieno[3,2-c]pyridin-4(5H)-one]"
16,63%,"Cc1cn(CC(=O)N2CCCC2)c(=O)c2c(-c3ccc(F)c(C(F)(F)F)c3)csc12 [Example 107, 3-[4-fluoro-3-(trifluoromethyl)phenyl]-7-methyl-5-[2-oxo-2-(pyrrolidin-1-yl)ethyl]-4H,5H-thieno[3,2-c]pyridin-4-one]"
17,110%,"O=C(Cn1ccc2c(c(-c3ccc(F)c(C(F)(F)F)c3)cn2-c2ccncn2)c1=O)N1CCC(F)C1 (stereo not drawn) [Example 244, 3-(4-fluoro-3-(trifluoromethyl)phenyl)-5-(2-(3-fluoropyrrolidin-1-yl)-2-oxoethyl)-1-(pyrimidin-4-yl)-1H-pyrrolo[3,2-c]pyridin-4(5H)-one]"
18,−4.2%,"Cc1cc(-c2csc3ccn(CC(=O)N4CC(C)(F)C4)c(=O)c23)cnc1F [Example 87, 5-(2-(3-fluoro-3-methylazetidin-1-yl)-2-oxoethyl)-3-(6-fluoro-5-methylpyridin-3-yl)thieno[3,2-c]pyridin-4(5H)-one]"
19,23%,"COCc1cn(CC(=O)N2CCC(F)C2)c(=O)c2c(-c3ccc(F)c(Cl)c3)csc12 (stereo not drawn) [Example 128, 3-(3-chloro-4-fluorophenyl)-5-(2-(3-fluoropyrrolidin-1-yl)-2-oxoethyl)-7-(methoxymethyl) thieno[3,2-c]pyridin-4(5H)-one]"
20,15%,"O=C(Cn1ncc2scc(-c3ccc(Cl)c(Cl)c3)c2c1=O)N1CCCC1 [Example 338, 3-(3,4-dichlorophenyl)-5-(2-oxo-2-(pyrrolidin-1-yl)ethyl)thieno[2,3-d]pyridazin-4(5H)-one]"
21,41%,"O=C(Cn1cnc2c(Br)sc(-c3ccc(Cl)c(F)c3)c2c1=O)N1CCCC1 [Example 368, 7-bromo-5-(4-chloro-3-fluorophenyl)-3-(2-oxo-2-(pyrrolidin-1-yl)ethyl)thieno[3,4-d]pyrimidin-4(3H)-one]"
22,2.8%,"O=C(Cn1ccc2scc(-c3ccc(F)c(Cl)c3)c2c1=O)N1CC2(CCN2)C1 [Example 97, 3-(3-chloro-4-fluorophenyl)-5-(2-oxo-2-(1,6-diazaspiro[3.3]heptan-6-yl)ethyl)thieno[3,2-c]pyridin-4(5H)-one 2,2,2-trifluoroacetate]"
23,24%,"Cn1cc(-c2ccc(Cl)cc2)c2c(=O)n(CC(=O)N3CC(F)(F)C3)cnc21 [Example 155, 5-(4-chlorophenyl)-3-(2-(3,3-difluoroazetidin-1-yl)-2-oxoethyl)-7-methyl-3H-pyrrolo[2,3-d]pyrimidin-4(7H)-one]"
24,62%,"Cn1cc(-c2ccc(Cl)c(Cl)c2)c2c(=O)n(CC(=O)N3CCC(F)C3)ccc21 (stereo not drawn) [Example 250, 3-(3,4-dichlorophenyl)-5-(2-(3-fluoropyrrolidin-1-yl)-2-oxoethyl)-1-methyl-1H-pyrrolo[3,2-c]pyridin-4(5H)-one]"
